Key:
[1] = test system: GUMC-403; assay: viability at highest tested concentration (max response) relative to DMSO (% of DMSO control); higher = less cytotoxic; settings: library / dose series: MIPE library, 11-point 1:3 dilution; top concentration 46.1 µM; 48 h
Summary of the method: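 Each figure stands for viability at the highest tested concentration compared with vehicle control. It was measured by CellTiter-Glo luminescence on a ViewLux after 48 h of exposure to 23 nL of pinned compound, with vehicle wells taken as 100% and empty wells as 0%. The cells were patient-derived GUMC-403 papilloma cells grown by conditional reprogramming, plated at 700/well in 5 μL F + Y medium in 1536-well plates.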

[2] = test system: GUMC-403; assay: AC50 for reduction of cell viability; higher = less potent; settings: library / dose series: MIPE library, 11-point 1:3 dilution; 48 h

COC[C@H](NC(=O)c1cnc(C)s1)C(=O)N[C@@H](COC)C(=O)N[C@@H](Cc1ccccc1)C(=O)[C@@]1(C)CO1
viability [1]: 8.89
AC50 for reduction of cell viability [2]: 6.62 µM

N=C(NCCCCCCNC(=N)NC(=N)Nc1ccc(Cl)cc1)NC(=N)Nc1ccc(Cl)cc1
viability [1]: 5.73
AC50 for reduction of cell viability [2]: 26.4 µM

C[S+](=O)([O-])N1CCc2c(-c3cnc(N)nc3)nc(N3CCOCC3)nc21
viability [1]: 46.2
AC50 for reduction of cell viability [2]: 0.332 µM

C[S+](=O)([O-])CCNCc1ccc(-c2ccc3ncnc(Nc4ccc(OCc5cccc(F)c5)c(Cl)c4)c3c2)o1
viability [1]: 8.12
AC50 for reduction of cell viability [2]: 10.5 µM

CCC1=C2CN3C(=O)\C4=C(/C=C3/C2=NC5=CC=C(O)C=C15)[C@@](O)(CC)C(=O)OC4
viability [1]: 78.2
AC50 for reduction of cell viability [2]: 4.69 µM

CCN(CC)CCNC(=O)c1ccc2nc(-c3ccccc3)c(-c3ccc(CN4CCC(n5c(=O)[nH]c6ccccc65)CC4)cc3)nc2c1
viability [1]: 3.89
AC50 for reduction of cell viability [2]: 10.5 µM

CC[C@@H]1[C@@H](C)O[C@@](O)([C@@H](C)[C@H](O)[C@H](C)[C@H]2OC(=O)/C=C/C=C/[C@H](C)[C@@H]([C@@H](C)[C@@H](O)[C@H](C)[C@@]3(O)C[C@@H](O[C@H]4C[C@H](O)[C@H](O)[C@H](C)O4)[C@H](CC)[C@@H](C)O3)OC(=O)/C=C/C=C/[C@@H]2C)C[C@H]1O[C@H]1C[C@H](O)[C@H](O)[C@H](C)O1
viability [1]: 8.03
AC50 for reduction of cell viability [2]: 26.4 µM

CCc1c(O)cc(O)c(C(=O)c2ccc(OCCN3CCOCC3)c(OC)c2)c1CC(=O)N(CCOC)CCOC
viability [1]: 56.6
AC50 for reduction of cell viability [2]: 2.09 µM

COC(=O)CCC1=C(C)C2=CC3=NC(=CC4=C(C)C(=C([NH]4)C=C\5N=C(C=C1[NH]2)\C(=C5C)CCC(O)=O)C=C)\C6=C\C=C(/[C@@H](C(=O)OC)[C@@]36C)C(=O)OC
viability [1]: 32.5
AC50 for reduction of cell viability [2]: 0.662 µM

Cc1c(CN2CCN(C(=O)[C@H](C)O)CC2)sc2c(N3CCOCC3)nc(-c3cnc(N)nc3)nc12
viability [1]: 54.1
AC50 for reduction of cell viability [2]: 0.148 µM

CCc1ccc(OCc2ccccc2C(=O)Nc2ccc3nc(C)cc(N)c3c2)cc1
viability [1]: 4.25
AC50 for reduction of cell viability [2]: 10.5 µM

O=C1\C=C(/OC2=C1C=CC=C2C3=CC=CC=C3)N4CCOCC4
viability [1]: 61.6
AC50 for reduction of cell viability [2]: 5.9 µM

CNC(=O)c1ccccc1Nc1nc(Nc2ccc(N3CCOCC3)cc2OC)ncc1Cl
viability [1]: 9.51
AC50 for reduction of cell viability [2]: 1.48 µM

CNC(=O)c1ccc(Nc2cc(Nc3ccccc3[S+](=O)([O-])C(C)C)c3cc[nH]c3n2)nc1
viability [1]: 10.4
AC50 for reduction of cell viability [2]: 18.7 µM

COc1cccc2c1C(=O)c1c(O)c3c(c(O)c1C2=O)C[C@@](O)(C(C)=O)C[C@@H]3O[C@H]1C[C@H](N)[C@H](O)[C@H](C)O1
viability [1]: 33.5
AC50 for reduction of cell viability [2]: 0.372 µM

CCN1CCN(Cc2ccc(-c3cc4c(N[C@H](C)c5ccccc5)ncnc4[nH]3)cc2)CC1
viability [1]: 69
AC50 for reduction of cell viability [2]: 0.372 µM

Nc1cc(C(F)(F)F)c(-c2cc(N3CCOCC3)nc(N3CCOCC3)n2)cn1
viability [1]: 44
AC50 for reduction of cell viability [2]: 1.48 µM

CN(C)c1ccc2nc3ccc(N(C)C)cc3[s+]c2c1
viability [1]: 6.57
AC50 for reduction of cell viability [2]: 7.43 µM

C[C@@H]1O[C@@H](O[C@H]\2CC[C@]\3(C)[C@@H]4CC[C@]5(C)[C@@H](CC[C@@]5(O)[C@H]4CCC3=C2)C/6=C/OC(=O)/C=C6)[C@H](O)[C@H](O)[C@@H]1O
viability [1]: 44.3
AC50 for reduction of cell viability [2]: 0.0166 µM

CN1CCN(c2cc(C(=O)Nc3ccc4c(c3)-c3c(c(C(N)=O)nn3-c3ccc(F)cc3)CC4)c(Cl)cn2)CC1
viability [1]: 7.1
AC50 for reduction of cell viability [2]: 5.26 µM

C[C@H]1CCC/C=C/C2C[C@H](O)C[C@H]2[C@H](O)/C=C/C(=O)O1 (some centres not stated)
viability [1]: 31.1
AC50 for reduction of cell viability [2]: 0.0105 µM

From the supplement of paper PMC6723410
